Data: patent US5395841A, “4-benzylpiperidines for treating phychosis” (Ferrer Internacional, S.A., priority 1992, dated 1995)
pIC50: −log10 of the molar value. Where a name gives a salt, the structure may show the parent alone.

Biological target: sigma-receptor (Cavia porcellus, UniProt Q60492)
Assay: Sigma-receptor binding ([3H]3-PPP displacement, membranes of guinea pig total brain)
Settings: 2 nM (+)[3H]3-PPP, guinea pig total brain membrane, 90 min at 25° C., pH 8.5 TRIS.HCl, eleven concentrations; read-out: IC50 (inhibitory concentration 50%)

sigma-receptor, sequence (Q60492 whole entry): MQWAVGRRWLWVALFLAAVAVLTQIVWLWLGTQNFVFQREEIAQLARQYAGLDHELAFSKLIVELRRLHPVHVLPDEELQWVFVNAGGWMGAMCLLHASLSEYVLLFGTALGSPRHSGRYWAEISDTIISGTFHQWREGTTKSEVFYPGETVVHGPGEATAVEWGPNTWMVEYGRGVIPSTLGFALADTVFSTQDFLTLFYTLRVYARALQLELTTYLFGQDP

SMILES	pIC50
OC(CCCN1CCC(Cc2ccc(F)cc2)CC1)c1ccc(F)cc1 (centres unmarked) [Example 7, 4-(p-Fluorobenzyl)-1-(4-fluorophenyl-4-hydroxy)butylpiperidine hydrochloride]	8.06
Fc1ccc(CC2CCN(CCCOc3ccc(F)cc3)CC2)cc1 [Example 8, 4-(p-Fluorobenzyl)-1-[3-(p-fluorophenoxy)propyl]piperidine dibenzoate]	8.35
Fc1ccc(CC2CCN(CCCC(c3ccc(F)cc3)c3ccc(F)cc3)CC2)cc1 [Example 9, 4-(p-Fluorobenzyl)-1-[4,4-bis(p-fluorophenyl)butyl]piperidine tribenzoate]	7.14
Fc1ccc(CC2CCN(CCCOc3ccc(F)cc3)CC2)cc1 [Example 11, 4-(p-Fluorobenzyl)-1-[3-(p-fluorophenoxy)propyl]piperidine hydrochloride]	8.38

Stronger by pIC50, values ahead:

pIC50	SMILES
8.53	CCCN1CCC(Cc2ccc(F)cc2)CC1 [Example 1, 4-p-Fluorobenzyl-1-propylpiperidine hydrochloride]
8.62	O=C(CCCN1CCC(Cc2ccc(F)cc2)CC1)c1ccc(F)cc1 [Example 5, 4-p-Fluorobenzyl-1-(4-p-fluorophenyl-4-oxo)butylpiperidine hydrochloride]
8.83	OC(CCCN1CCC(Cc2ccccc2)CC1)c1ccc(F)cc1 (centres unmarked) [Example 6, 4-Benzyl-1-(4-hydroxi-4-p-fluorophenyl)butylpiperidine hydrochloride]
8.72	O=C1CC2(CCCC2)CC(=O)N1CCCCN1CCC(Cc2ccc(F)cc2)CC1 [Example 10, 8-[4-[4-(p-Fluorobenzyl)-1-piperidinyl]butyl]-8-azaspiro[4,5] decane-7,9-dione hydrochloride]
